# What was measured:
# c-IAP1 = target: T1, c-IAP1 (Homo sapiens, UniProt Q13490); assay: Fluorescence polarization-based competition assay, c-IAP1; type: binding; conditions: FP assay, ki derived from IC50
# T1 construct: GST (N); made in house; host or cells: E. coli DH5α
# Method: (§1) Binding of compounds of Formula 1 to target BIR domains was measured using a fluorescence-polarization (FP) assay. Fluorescence-polarization was evaluated using a GENios microplate reader (TECAN) Pro instrument with the excitation filter set at 485 nm and the emission filter set at 535 nm. The final amount of protein used in the assay corresponds to the amount of protein necessary to obtain 80% of the maximum FP value in a P1 or P2 fluorescent (FITC) probe saturation experiment. The compounds potency (IC50) and selectivity, was assessed in the presence of the amount of target protein established, fluorescent probe, and a 10 point serial dilution in assay buffer (50 mM Hepes, pH 7.5, 250 mcg/mL γ-globulin, 2 mM DTT, 1% DMSO) of the selected compounds.
# (§2) Assays were carried out in duplicate using untreated black 96-well plates (Corning #3915) and a total volume of 100 microliters, containing 25 microliters of fluorescent probe at a final concentration of 2 nM in assay buffer, 25 microliters of diluted compound, 25 microliters of BIR protein into assay buffer and 25 microliters of assay buffer. Buffer only (blank) or probe only in buffer (G-factor) were used as controls for calibration. The plate was incubated at room temperature in the dark for one hour and FP values in millipolarization units (mP) were recorded using Genios Pro FP reader.
# (§3) The measured FP values (mP) were then plotted against compound concentration, and IC50 values were calculated based on a sigmoidal dose-response (variable-slope) curve fit using GraphPad Prism version 4.02 for Windows, GraphPad Software, San Diego Calif. USA and/or CambridgeSoft BioAssay Enterprise Version 10.1. The IC50 value is the concentration of test compound at which 50% of the tracer was displaced. ki values were derived from the calculated IC50 values as described above and according to the equation described in Nikolovska-Coleska, Z. (2004) Anal Biochem 332, 261-273. The results are presented in Table 2, wherein A=less than 25 nM; B=less than 250 nM; C=less than 1000 nM; and D=greater than 1000 nM.
# [1] = tested on: Colorectal carcinoma HCT116 cells; assay: Cell death assay (MTT) in combination with HGS ETR1; type: cell-based; conditions: with HGS ETR1 30 ng/ml, 72 hours, read-out: HCT116+ mapatubimap EC50
# Method: Colorectal carcinoma HCT116 cells were cultured as monolayers in 96 well plates at a density of 2000 cells per well in McCoy's 5a medium (HyClone) supplemented with 2.2 g/L sodium bicarbonate, 10% FBS (HyClone) and 1% penicillin/streptomycin (HyClone). 24 hours later, triplicate wells were treated with HGS ETR1 (30 ng/ml) in combination with compound. Cells were incubated in the presence of compound and HGS agonistic Trail receptor antibody, ETR1 (Mapatumamab, 30 ng/ml) for 72 hours. Metabolic viability of remaining cells was assessed by MTT (thiazolyl blue tetrazolium bromide, Sigma) assay.
# EC50 values (50% cell survival in the presence of compound as compared to untreated controls) were calculated from survival curves using BioAssay software (CambridgeSoft) and GraphPad Prism (Graph Pad Software Inc.). The results are provided in Table 3, below, wherein A=less than 50 nM; B=less than 250 nM; C=less than 1000 nM; and D=greater than 1000 nM.
# XIAP = target: T2, XIAP (Homo sapiens, UniProt P98170); assay: Fluorescence polarization-based competition assay, XIAP; type: binding; conditions: FP assay, ki derived from IC50
# T2 construct: fused on or other part: GST tag at the N-terminus (pGEX4T vectors)
# Method: as §1, §2, §3
# T1 sequence (Q13490 251-363): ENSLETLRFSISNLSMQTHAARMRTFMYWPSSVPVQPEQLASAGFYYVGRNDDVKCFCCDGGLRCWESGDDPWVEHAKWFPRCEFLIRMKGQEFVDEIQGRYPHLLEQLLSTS
# T2 sequence (P98170 246-497 limits assumed): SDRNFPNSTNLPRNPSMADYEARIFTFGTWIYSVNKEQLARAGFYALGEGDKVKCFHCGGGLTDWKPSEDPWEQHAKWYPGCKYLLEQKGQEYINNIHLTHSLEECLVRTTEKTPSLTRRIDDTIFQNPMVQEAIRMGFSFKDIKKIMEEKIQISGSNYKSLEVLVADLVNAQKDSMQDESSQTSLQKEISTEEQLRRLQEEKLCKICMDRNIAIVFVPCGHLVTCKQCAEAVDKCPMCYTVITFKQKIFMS
Compound,Ki (c-IAP1),Ki (XIAP),EC50 [1]
CN[C@@H](C)C(=O)N[C@H](C(=O)N1CCC[C@H]1CN(CCc1ccccc1)C(=O)c1cc2ccccn2c1)C(C)(C)C [Compound 8],< 25 nM,< 25 nM,< 250 nM
CN[C@@H](C)C(=O)N[C@H](C(=O)N1CCC[C@H]1CN(CCc1ccccc1)C(=O)c1cn2ccccc2n1)C1CCCCC1 [Compound 13],< 25 nM,< 250 nM,< 250 nM
CN[C@@H](C)C(=O)N[C@H](C(=O)N1CCC[C@H]1CN(CCc1ccccc1)C(=O)c1cn2c(n1)CCCC2)C(C)(C)C [Compound 15],< 25 nM,< 250 nM,< 250 nM
CN[C@@H](C)C(=O)N[C@H](C(=O)N1CCC[C@H]1CN(CCc1ccccc1)C(=O)c1nc2ccccc2[nH]1)C(C)(C)C [Compound 16],< 25 nM,< 250 nM,< 1000 nM
CN[C@@H](C)C(=O)N[C@H](C(=O)N1CCC[C@H]1CN(CCc1ccccc1)C(=O)c1c[nH]cn1)C(C)(C)C [Compound 21],< 25 nM,< 250 nM,< 1000 nM
CN[C@@H](C)C(=O)N[C@H](C(=O)N1CCC[C@H]1CN(CCc1ccccc1)C(=O)c1ncc[nH]1)C(C)(C)C [Compound 22],< 25 nM,< 250 nM,< 250 nM
CN[C@@H](C)C(=O)N[C@H](C(=O)N1CCC[C@H]1CN(CCc1ccccc1)C(=O)c1ccc[nH]1)C(C)(C)C [Compound 23],< 25 nM,< 25 nM,< 250 nM
CN[C@@H](C)C(=O)N[C@H](C(=O)N1CCC[C@H]1CN(CCc1ccccc1)C(=O)c1c[nH]c2ccccc12)C(C)(C)C [Compound 24],< 25 nM,< 250 nM,< 250 nM
CN[C@@H](C)C(=O)N[C@H](C(=O)N1CCC[C@H]1CN(CCc1ccccc1)C(=O)c1cn(C)c2ccccc12)C(C)(C)C [Compound 25],< 25 nM,< 250 nM,–
CN[C@@H](C)C(=O)N[C@H](C(=O)N1CCC[C@H]1CN(CCc1ccccc1)C(=O)c1cc2ccccc2n1C)C(C)(C)C [Compound 26],< 25 nM,< 250 nM,< 1000 nM
CN[C@@H](C)C(=O)N[C@H](C(=O)N1CCC[C@H]1CN(CCc1ccccc1)C(=O)c1cn(C)cn1)C(C)(C)C [Compound 34],< 25 nM,< 250 nM,< 250 nM
CN[C@@H](C)C(=O)N[C@H](C(=O)N1CCC[C@H]1CN(CCc1ccccc1)C(=O)c1cn2ccncc2n1)C(C)(C)C [Compound 35],< 25 nM,< 25 nM,< 250 nM
CN[C@@H](C)C(=O)N[C@H](C(=O)N1CCC[C@H]1CN(CCc1ccc(F)cc1)C(=O)c1cnc2ncccn12)C(C)(C)C [Compound 38],–,–,< 250 nM
CN[C@@H](C)C(=O)N[C@H](C(=O)N1CCC[C@H]1CN(CCc1ccc(F)cc1)C(=O)C(=O)Nc1ccc(OC)cc1)C(C)(C)C [Compound 41],< 25 nM,< 250 nM,< 1000 nM
CN[C@@H](C)C(=O)N[C@H](C(=O)N1CCC[C@H]1CN(CCc1ccc(F)cc1)C(=O)c1cn2cc(NC(C)=O)ccc2n1)C(C)(C)C [Compound 43],< 25 nM,< 250 nM,< 250 nM
CN[C@@H](C)C(=O)N[C@H](C(=O)N1CCC[C@H]1CN(CCc1ccc(F)cc1)C(=O)c1cc(C)n(C)n1)C(C)(C)C [Compound 101],–,–,< 50 nM
CN[C@@H](C)C(=O)N[C@H](C(=O)N1CCC[C@H]1CN(CCc1ccc(F)cc1)C(=O)c1cnn(-c2ccc(F)cc2)n1)C1CCCCC1 [Compound 118],–,–,< 250 nM
CN[C@@H](C)C(=O)N[C@H](C(=O)N1C[C@@H](Oc2ccc(F)cc2)C[C@H]1CN(CCc1ccc(F)cc1)C(=O)c1cnn(-c2ccc(F)cc2)n1)C(C)(C)C [Compound 119],–,–,< 250 nM
CN[C@@H](C)C(=O)N[C@H](C(=O)N1C[C@@H](Oc2ccc(F)cc2)C[C@H]1CN(CCc1ccc(F)cc1)C(=O)c1cc(C)n(C)n1)C(C)(C)C [Compound 121],–,–,< 50 nM

# Now from value to compound, other results behind:
Ki (c-IAP1),Ki (XIAP),Compound,EC50 [1]
< 25 nM,< 1000 nM,CC[C@H](NC)C(=O)N[C@H](C(=O)N1CCC[C@H]1CN(CCc1ccccc1)C(=O)c1cn2cccnc2n1)C1CCCCC1 [Compound 1],< 250 nM
< 25 nM,< 250 nM,CN[C@@H](C)C(=O)N[C@H](C(=O)N1CCC[C@H]1CN(CCc1ccccc1)C(=O)c1cn2cccnc2n1)C1CCOCC1 [Compound 3],< 1000 nM
< 25 nM,< 250 nM,CN[C@@H](C)C(=O)N[C@H](C(=O)N1CCC[C@H]1CN(CCc1ccccc1)C(=O)c1cn2cccnc2n1)C1CCCCC1 [Compound 5],< 50 nM
< 25 nM,< 250 nM,CN[C@@H](C)C(=O)N[C@H](C(=O)N1CCC[C@H]1CN(CCc1ccccc1)C(=O)C(=O)Nc1ccccc1)C(C)(C)C [Compound 9],< 250 nM
< 25 nM,< 250 nM,CN[C@@H](C)C(=O)N[C@H](C(=O)N1CCC[C@H]1CN(CCc1ccccc1F)C(=O)c1cn2cccnc2n1)C(C)(C)C [Compound 11],< 250 nM
< 25 nM,< 250 nM,CN[C@@H](C)C(=O)N[C@H](C(=O)N1CCC[C@H]1CN(CCc1ccc(F)cc1)C(=O)c1cn2ccccc2n1)C1CCOCC1 [Compound 19],< 50 nM
< 25 nM,< 250 nM,CN[C@@H](C)C(=O)N[C@H](C(=O)N1CCC[C@H]1CN(CCc1ccccc1)C(=O)c1cc2ccccc2[nH]1)C(C)(C)C [Compound 27],< 1000 nM
< 25 nM,< 250 nM,CN[C@@H](C)C(=O)N[C@H](C(=O)N1CCC[C@H]1CN(CCc1ccccc1)C(=O)c1cnc2ccccn12)C(C)(C)C [Compound 28],< 1000 nM
< 25 nM,< 1000 nM,CC[C@H](N)C(=O)N[C@H](C(=O)N1CCC[C@H]1CN(CCc1ccccc1)C(=O)c1cn2ccccc2n1)C1CCCCC1 [Compound 29],> 1000 nM
< 25 nM,< 250 nM,CN[C@@H](C)C(=O)N[C@H](C(=O)N1CCC[C@H]1CN(CCc1ccccc1)C(=O)c1cn2cc(C)ccc2n1)C(C)(C)C [Compound 30],< 250 nM
< 25 nM,< 250 nM,CN[C@@H](C)C(=O)N[C@H](C(=O)N1CCC[C@H]1CN(CCc1ccccc1)C(=O)c1cn2ccc(C)cc2n1)C(C)(C)C [Compound 31],< 250 nM
< 25 nM,< 250 nM,CN[C@@H](C)C(=O)N[C@H](C(=O)N1CCC[C@H]1CN(CCc1ccccc1)C(=O)c1cn2cccnc2n1)C1CCCC1 [Compound 33],< 250 nM
< 25 nM,< 250 nM,CN[C@@H](C)C(=O)N[C@H](C(=O)N1CCC[C@H]1CN(CCc1ccc(F)cc1)C(=O)c1cn2cc(F)ccc2n1)C(C)(C)C [Compound 39],< 250 nM
< 25 nM,< 250 nM,CN[C@@H](C)C(=O)N[C@H](C(=O)N1CCC[C@H]1CN(CCc1ccc(F)cc1)C(=O)C(=O)Nc1ccc(F)cc1)C(C)(C)C [Compound 42],< 1000 nM
< 25 nM,< 25 nM,CN[C@@H](C)C(=O)N[C@H](C(=O)N1CCC[C@H]1CN(CCc1ccc(F)cc1)C(=O)c1cn2cc(N)ccc2n1)C(C)(C)C [Compound 45],< 50 nM
< 25 nM,< 250 nM,CN[C@@H](C)C(=O)N[C@H](C(=O)N1CCC[C@H]1CN(CCc1ccc(F)cc1)C(=O)c1cn2cc(O)cnc2n1)C(C)(C)C [Compound 46],< 1000 nM
< 25 nM,< 250 nM,CN[C@@H](C)C(=O)N[C@H](C(=O)N1CCC[C@H]1CN(CCc1ccc(F)cc1)C(=O)c1cn2cc(-c3ccccc3)ccc2n1)C(C)(C)C [Compound 48],< 50 nM
< 25 nM,< 250 nM,CN[C@@H](C)C(=O)N[C@H](C(=O)N1CCC[C@H]1CN(CCc1ccc(F)cc1)C(=O)c1cn2cc(OC)ccc2n1)C(C)(C)C [Compound 51],< 250 nM
